Bounds are passed on as bounds.

Consider 32 compounds from patent US20210122763A1, “OGA INHIBITOR COMPOUNDS” (Janssen Pharmaceutica NV, priority 2018, published 2021).

Test [1] addresses T1, recombinant human Meningioma Expressed Antigen 5 (MGEA5), also referred to as O-GlcNAcase (OGA) (Homo sapiens, UniProt O60502).
T1 construct: Full length OGA enzyme was purchased at OriGene (cat #TP322411); purchased OriGene TP322411
T1 sequence (O60502 1-916): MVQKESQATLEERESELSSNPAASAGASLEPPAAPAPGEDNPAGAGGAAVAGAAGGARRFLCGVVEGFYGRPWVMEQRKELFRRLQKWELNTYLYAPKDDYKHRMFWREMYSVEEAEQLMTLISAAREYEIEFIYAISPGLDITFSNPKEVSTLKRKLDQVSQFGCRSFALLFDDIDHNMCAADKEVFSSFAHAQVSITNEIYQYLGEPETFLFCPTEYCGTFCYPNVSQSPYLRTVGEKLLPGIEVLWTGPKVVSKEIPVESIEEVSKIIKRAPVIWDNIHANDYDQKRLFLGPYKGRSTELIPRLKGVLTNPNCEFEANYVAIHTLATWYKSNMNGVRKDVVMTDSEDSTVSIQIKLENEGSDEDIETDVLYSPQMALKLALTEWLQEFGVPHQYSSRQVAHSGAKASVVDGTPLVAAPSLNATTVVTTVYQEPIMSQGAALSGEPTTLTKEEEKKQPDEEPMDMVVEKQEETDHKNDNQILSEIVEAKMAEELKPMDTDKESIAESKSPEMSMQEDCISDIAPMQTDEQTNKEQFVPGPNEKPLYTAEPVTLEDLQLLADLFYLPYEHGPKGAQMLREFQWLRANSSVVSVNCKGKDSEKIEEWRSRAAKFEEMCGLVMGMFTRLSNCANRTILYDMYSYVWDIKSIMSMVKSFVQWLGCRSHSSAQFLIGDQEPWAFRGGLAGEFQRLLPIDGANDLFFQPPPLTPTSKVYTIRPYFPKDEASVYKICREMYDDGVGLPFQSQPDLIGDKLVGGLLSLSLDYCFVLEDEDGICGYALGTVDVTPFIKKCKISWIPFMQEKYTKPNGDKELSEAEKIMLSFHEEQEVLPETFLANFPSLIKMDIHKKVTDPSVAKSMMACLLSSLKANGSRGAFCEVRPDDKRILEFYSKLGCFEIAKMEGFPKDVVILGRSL
Put plainly: OGA biochemical assay (inhibition of FM-GlcNAc hydrolysis, fluorescence). The conditions noted are these: for Emax: read-out: Enzymatic Emax (%); for IC50: read-out: Enzymatic hOGA, pIC50 (converted). In a few lines: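 Full-length OGA at 2 nM was pre-incubated 60 min at room temperature with compound, then FM-GlcNAc at 100 uM final was added in citrate/phosphate buffer pH 7.2 with 0.005% Tween-20. After 6 h at room temperature, carbonate pH 11.0 stopped the reaction. Fluorescence read at 485/538 nm; IC50 and Hill coefficient from curve fit against no-inhibitor and saturating-standard controls.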

For the next test, the target named is T2, OGA (Homo sapiens, UniProt O60502).
T2 construct: HEK293 cells inducible for P301L mutant human Tau (isoform 2N4R) were established at Janssen; endogenous in cells; host or cells: HEK293 cells inducible for P301L mutant human Tau (2N4R)
T2 sequence (O60502 1-916): T1 sequence (O60502 1-916)
Put plainly: OGA cellular assay (ICC detection of O-GlcNAcylated proteins in HEK293 cells inducible for P301L mutant human Tau). Format: cell-based. The conditions noted are these: 6 hours incubation; for Emax: HEK293, HEK293 cells inducible for P301L mutant human Tau, maximum = Thiamet G 200 uM; for EC50: HEK293 cells inducible for P301L mutant human Tau, read-out: Cellular hOGA, pEC50 (converted). In a few lines: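 HEK293 cells with inducible P301L 2N4R Tau, seeded in low-glucose medium, were exposed to compounds for 6 hours (0.2% DMSO), then PFA-fixed and stained with CTD110.6. Imaging intensity at 488 nm measured O-GlcNAcylation, with Hoechst nuclei counts for toxicity. IC50s came from non-linear regression, with Thiamet G at 200 uM as maximum inhibition.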

With `Cc1ccc(OC2CCN(C(C)c3nc4c(cc3F)OCCO4)CC2)cn1` (stereo not drawn) [Compound 94], in test [1], the Emax (usually the maximal effect, on the per cent scale that the assay sets) is 96% and the IC50 was 10 nM. Further, at OGA, the Emax is 82% and the EC50 was 95.5 nM.

Turning to `CC(c1ccc2c(n1)OCCO2)N1CCC(Oc2ccc(OC(F)(F)F)cn2)CC1` (stereo not drawn) [Compound 96], in test [1], the Emax came out at 99% and the IC50 is 63.1 nM. In addition, on OGA, the Emax worked out at 41% and the EC50 is more than 1000 nM.

As to `Cc1cc(C#N)cnc1OC1CCN(C(C)c2ccc3c(n2)OCCO3)CC1` (stereo not drawn) [Compound 97], in test [1], the Emax was determined as 94% and the IC50 was 398 nM. Moreover, at OGA, the Emax worked out at 20% and the EC50 is more than 1000 nM.

Take `COc1cnccc1OC1CCN(C(C)c2ccc3c(n2)OCCO3)CC1` (stereo not drawn) [Compound 98]: in test [1], the Emax was determined as 94% and the IC50 is 200 nM. At OGA, the Emax is 47% and the EC50 is 501 nM.

As for `COc1ccc(OC2CCN(C(C)c3ccc4c(n3)OCCO4)CC2)nc1` (stereo not drawn) [Compound 99], in test [1], the Emax was 98% and the IC50 is 158 nM. In addition, on OGA, the Emax was 34% and the EC50 was more than 1000 nM.

As for `Cc1cc(OC2CCN(C(C)c3ccc4c(n3)OCCO4)CC2)ncc1C#N` (stereo not drawn) [Compound 101], in test [1], the Emax amounted to 94% and the IC50 is 100 nM. In addition, at OGA, the Emax was determined as 53% and the EC50 was 501 nM.

Turning to `COc1cc(C#N)cnc1OC1CCN(C(C)c2ccc3c(n2)OCCO3)CC1` (stereo not drawn) [Compound 102], in test [1], the Emax was found to be 95% and the IC50 was 501 nM. Further, on OGA, the Emax was 10% and the EC50 is more than 1000 nM.

`COc1cc(OC2CCN(C(C)c3ccc4c(n3)OCCO4)CC2)ncc1C#N` (stereo not drawn) [Compound 103]: in test [1], the Emax amounted to 97% and the IC50 is 79.4 nM. Also, the Emax on OGA was 52%.

As to `CC(c1ccc2c(n1)OCCO2)N1CCC(Oc2ccncc2C#N)CC1` (stereo not drawn) [Compound 104], in test [1], the Emax amounted to 95% and the IC50 is 631 nM. Moreover, at OGA, the Emax was determined as 12% and the EC50 is more than 1000 nM.

In the case of `CC(c1ccc2c(n1)OCCO2)N1CCC(Oc2ncc(C#N)cc2F)CC1` (stereo not drawn) [Compound 105], in test [1], the Emax amounted to 97% and the IC50 was 398 nM. Moreover, at OGA, the Emax is 16% and the EC50 is more than 1000 nM.

Take `C[C@@H](c1ccc2c(n1)OCCO2)N1CCC(Oc2ccc(C#N)nn2)CC1` [Compound 107]: in test [1], the Emax is 96% and the IC50 is 158 nM. On OGA, the Emax was found to be 51% and the EC50 was 631 nM.

`COc1nccnc1OC1CCN(C(C)c2ccc3c(n2)OCCO3)CC1` (stereo not drawn) [Compound 108]: in test [1], the Emax came out at 101% and the IC50 was 631 nM. In addition, at OGA, the Emax was 15% and the EC50 was more than 1000 nM.

For the compound `Cc1cncc(OC2CCN(C(C)c3nc4c(cc3F)OCCO4)CC2)n1` (stereo not drawn) [Compound 109], in test [1], the Emax was determined as 99% and the IC50 is 12.6 nM. Further, at OGA, the Emax is 77% and the EC50 is 200 nM.

With `Cc1ncc(OC2CCN(C(C)c3nc4c(cc3F)OCCO4)CC2)nc1C` (stereo not drawn) [Compound 110], in test [1], the Emax was determined as 101% and the IC50 was 7.94 nM. Also, on OGA, the Emax is 79% and the EC50 is 100 nM.

As for `Cc1nccnc1OC1CCN(C(C)c2nc3c(cc2F)OCCO3)CC1` (stereo not drawn) [Compound 111], in test [1], the Emax worked out at 98% and the IC50 was 50.1 nM. For the same compound, on OGA, the Emax amounted to 77% and the EC50 is 200 nM.

`CC(c1ccc2c(n1)OCCO2)N1CCC(Oc2cnc(C(F)(F)F)cn2)CC1` (stereo not drawn) [Compound 114]: in test [1], the Emax is 97% and the IC50 is 316 nM. At OGA, the Emax is 31% and the EC50 was more than 1000 nM.

Turning to `CC(c1ccc2c(n1)OCCO2)N1CCC(Oc2ccc(F)cn2)CC1` (stereo not drawn) [Compound 115], in test [1], the Emax stood at 96% and the IC50 is 200 nM. Moreover, on OGA, the Emax worked out at 25% and the EC50 was more than 1000 nM.

For `Cc1ncccc1OC1CCN(C(C)c2ccc3c(n2)OCCO3)CC1` (stereo not drawn) [Compound 116], in test [1], the Emax was determined as 96% and the IC50 was 126 nM. Moreover, at OGA, the Emax came to 42% and the EC50 is more than 1000 nM.

`CC(C)c1ncc(OC2CCN(C(C)c3ccc4c(n3)OCCO4)CC2)cn1` (stereo not drawn) [Compound 119]: in test [1], the Emax worked out at 100% and the IC50 was 63.1 nM. Further, at OGA, the Emax amounted to 68% and the EC50 is 331 nM.

Regarding `CC(c1ccc2c(n1)OCCO2)N1CCC(Oc2cnc(C3CC3)nc2)CC1` (stereo not drawn) [Compound 120], in test [1], the Emax is 98% and the IC50 is 50.1 nM. Besides, at OGA, the Emax was determined as 87% and the EC50 is 251 nM.

Turning to `Cc1cc(OC2CCN(C(C)c3ccc4c(n3)OCCO4)CC2)c(F)c(C)n1` (stereo not drawn) [Compound 121], in test [1], the Emax is 96% and the IC50 was 100 nM. Besides, on OGA, the Emax turned out to be 59% and the EC50 is 398 nM.

`CC(c1nc2c(cc1F)OCCO2)N1CCC(Oc2ccc(C(=O)N(C(C)C)C(C)C)nc2)CC1` (stereo not drawn) [Compound 123]: in test [1], the Emax was 93% and the IC50 is 12.6 nM. Also, on OGA, the Emax was determined as 59% and the EC50 was 100 nM.

`Cc1cc(OC2CCN(C(C)c3ccc4c(n3)OCCO4)CC2)cc(OC(C)C)n1` (stereo not drawn) [Compound 124]: in test [1], the Emax worked out at 98% and the IC50 was 31.6 nM. In addition, at OGA, the Emax was 64% and the EC50 was 100 nM.

In the case of `Cc1cc(OC2CCN(C(C)c3ccc4c(n3)OCCO4)CC2)cc(C2CC2)n1` (stereo not drawn) [Compound 125], in test [1], the Emax turned out to be 96% and the IC50 was 31.6 nM. At OGA, the Emax is 91% and the EC50 is 126 nM.

Take `Cc1cc(OC2CCN(C(C)c3nc4c(cc3F)OCCO4)CC2)cc(C#N)n1` (stereo not drawn) [Compound 128]: in test [1], the Emax was 102% and the IC50 was 7.94 nM. For the same compound, on OGA, the Emax worked out at 95% and the EC50 is 50.1 nM.

Turning to `CCc1cc(OC2CCN(C(C)c3ccc4c(n3)OCCO4)CC2)cc(C)n1` (stereo not drawn) [Compound 129], in test [1], the Emax worked out at 97% and the IC50 was 63.1 nM. Besides, on OGA, the Emax is 83% and the EC50 was 126 nM.

As to `Cc1cc(OC2CCN(C(C)c3ccc4c(n3)OCCO4)CC2)cc(C(C)C)n1` (stereo not drawn) [Compound 130], in test [1], the Emax is 100% and the IC50 is 39.8 nM. On OGA, the Emax came to 59% and the EC50 was 245 nM.

Turning to `CC(c1ccc2c(n1)OCCO2)N1CCC(C)(Oc2ccc(F)cc2)CC1` (stereo not drawn) [Compound 131], in test [1], the Emax was 70% and the IC50 is 3980 nM. At OGA, the Emax is -4% and the EC50 is more than 1000 nM.

In the case of `Cc1cc(OC2(CF)CCN(C(C)c3ccc4c(n3)OCCO4)CC2)cc(C)n1` (stereo not drawn) [Compound 132], in test [1], the Emax amounted to 63% and the IC50 was 6310 nM. Besides, at OGA, the Emax was found to be 24% and the EC50 was more than 1000 nM.

Regarding `COc1cc(COC2CCN(C(C)c3nc4c(cc3F)OCCO4)CC2)cc(C)n1` (stereo not drawn) [Compound 134], in test [1], the Emax worked out at 94% and the IC50 was 10 nM. On OGA, the Emax is 81% and the EC50 was 63.1 nM.

Consider `Cc1ccc(COC2CCN(C(C)c3nc4c(cc3F)OCCO4)CC2)cn1` (stereo not drawn) [Compound 138], for which, in test [1], the Emax was 100% and the IC50 is 20 nM. At OGA, the Emax came out at 79% and the EC50 is 158 nM.

For the compound `Cc1ncc(OC2CCN(C(C)c3ccc4c(n3)OCCO4)CC2)cc1F` (stereo not drawn) [Compound 152], in test [1], the Emax was 93% and the IC50 was 100 nM. Further, the Emax on OGA was 42%.
